Results on 59 compounds are retold here after patent US20260053861A1, “CELL COMPOSITIONS AND METHODS OF USING THE SAME” (THE REGENTS OF THE UNIVERSITY OF CALIFORNIA, priority 2022, published 2026).

Counter-ions that a name gives are not always drawn.

In the first data set the test system is NF-kB p65. Description: NF-kB p65 staining, nuclear localization in SCs exposed to high glucose. It counts as cell-based, human.
Settings: not given
Take `CC(NC(C)(C)C)C(=O)c1cccc(Cl)c1` (stereo not drawn) [BP, Bupropion]: the “NF-kB p65 localization to the nucleus in SCs exposed to high glucose” value is recorded as “counteracted by BP treatment”.

A further data set has as its system hPSC-SCs. The data set is described as follows: Untargeted primary metabolomics of glucose and BP treated SCs. It counts as cell-based, human. Conditions: SCs.
Turning to `CC(NC(C)(C)C)C(=O)c1cccc(Cl)c1` (stereo not drawn) [BP, Bupropion], the cellular lactate level result is “reduced after BP treatment”; the “levels of TCA cycle metabolites succinate, fumarate, citrate, α-ketoglutarate and malate” value is on record as “increase in the detected levels”.

The data set is the same for the next values; noted with them: high glucose.
On to `CC(NC(C)(C)C)C(=O)c1cccc(Cl)c1` (stereo not drawn) [BP, Bupropion], for which the “cellular pyruvate increased by high glucose” value is recorded as “lowered by BP treatment”; the “concentration of citrate reduced by high glucose” value is recorded as “reversed by BP treatment”; the “urea concentration and transporter SLC14A2 mRNA level” value is “decreased in the presence of BP”.

The subject of a further data set is hPSC-SCs. The data set is described as follows: Metabolite measurements by biochemical/colorimetric assays (sorbitol, fructose, lactate, glucose, pyruvate).
Settings: not given
It counts as cell-based, human.
For `CC(NC(C)(C)C)C(=O)c1cccc(Cl)c1` (stereo not drawn) [BP, Bupropion], the “cellular level of fructose increased by high glucose” value was “countered this effect”.

Still in this data set, the particulars now being: SCs, high glucose.
For `CC(NC(C)(C)C)C(=O)c1cccc(Cl)c1` (stereo not drawn) [BP, Bupropion], the “intracellular glucose and sucrose levels” value was “decrease in intracellular glucose and sucrose levels”.

The same data set, now with this note: high glucose.
`CC(NC(C)(C)C)C(=O)c1cccc(Cl)c1` (stereo not drawn) [BP, Bupropion]: the “sorbitol accumulation in SCs” value is given as “reduced sorbitol accumulation in SCs in a dose-dependent manner”.

For a further data set, the system named is SOX10+ cells in 2D or 3D NC cultures. Description: Maintenance of SOX10 expression in cultured NC precursors with signaling modulators. Type of data set: cell-based, human. The note with it: CHIR99021 exposure together with FGF2, 3D aggregates. The text has this: Initial hPSC-based NC differentiation protocols relied on the delamination of putative NC cells from neuroepithelial lineages combined with the prospective isolation of p75+ and/or HNK1+ NC precursors (Bajpai et al., 2010; Lee et al., 2007). While those protocols yield various NC-derived lineages, the levels of SOX10 expression are generally low. In contrast, more directed NC induction protocols based on timed exposure to activators of WNT signaling show robust induction of SOX10 in the majority of cells by day 11 of differentiation (Barber et al., 2019; […] et al., 2016; Menendez et al., 2011; Mica et al., 2013; Tchieu et al., 2017). Upon further culture, those hPSC-derived NC cells can be directed into SOX10+ melanocytes (Mica et al., 2013) but also give rise to SOX10-mesenchymal and neuronal precursors ([…] et al., 2016; Lee et al., 2007; Mica et al., 2013; Tchieu et al., 2017). Since SOX10 is a key marker in the SC lineage (Finzsch et al., 2010), we first screened for conditions that maintained its expression in cultured NC precursors. We determined the percentage of SOX10+ cells in 2D or 3D NC cultures in the presence of modulators of EGF, FGF, WNT, Notch, TGFβ, BMP and endothelin 3 signaling.
As to `Cc1c[nH]c(-c2cnc(NCCNc3ccc(C#N)cn3)nc2-c2ccc(Cl)cc2Cl)n1` [CHIR99021, reference compound], the “SOX10 expression in cultured NC precursors” value is “maintenance of SOX10 expression in 3D aggregates”.

Regarding FGF2, the “SOX10 expression in cultured NC precursors” value is recorded as “maintenance of SOX10 expression in 3D aggregates”.

The subject of another data set is hPSC-SCs.
Assay: not given
Settings: not given
As for `CC1=C2[C@H]3OC(=O)[C@@H](C)[C@@H]3CC[C@@]2(C)C=CC1=O` [alpha-Santonin], the z.score.t is on record as −1.108. `CC[N+]1(C)[C@@H]2CC[C@H]1CC(OC(=O)[C@@H]1CC[C@@](C(=O)OC3C[C@H]4CC[C@@H](C3)[N+]4(C)CC)(c3ccccc3)c3ccccc31)C2.[Cl-].[Cl-]` (stereo partly drawn) [beta-Belladonnine dichloroethylate] came in with a z.score.t of 1.872. Same read-out and setting: then (−)-MK 801 hydrogen maleate, with 1.657; and (−)-Quinpirole hydrochloride, with 1.683; and Antimycin A, with −1.787.

The compound Avermectin B1 had a z.score.t of 0.7158. Bromocryptine mesylate: the z.score.t was −1.272. For the compound Butirosin disulfate salt, the z.score.t was −0.5169.

In the case of Colistin sulfate, the z.score.t was −0.4139. The same measure, in the same setting: then Cotinine (−), with −0.139; and Cyanocobalamin, with 0.837. As to Cytisine (−), the z.score.t is given as −0.1641. As for Deptropine citrate, the z.score.t is recorded as −0.247. Dihydroergotamine tartrate: the z.score.t was −0.5417. Foliosidine: the z.score.t is −0.2802. Guanadrel sulfate yielded a z.score.t of 0.7158.

In the case of Helveticoside, the z.score.t came out at 1.053.

For Isoetharine mesylate salt, the z.score.t was found to be 0.5976. For Lycorine hydrochloride, the z.score.t was −2.213. Mephentermine hemisulfate: the z.score.t was −0.2359.

Turning to Merbromin, the z.score.t is given as −0.7567. With Pridinol methanesulfonate salt, the z.score.t was −0.7183.

On to Retrorsine, for which the z.score.t is reported as −0.3526. For the compound Solanine alpha, the z.score.t is on record as −0.2486. Same read-out and setting: then Tyloxapol, with −1.008. As for Viomycin sulfate, the z.score.t is recorded as −0.2329.

Still in this data set, the particulars now being: 30 mM glucose, compounds at 1 μM, 72 hours, DAPI negative RFP positive cells.
For `CC(NC(C)(C)C)C(=O)c1cccc(Cl)c1` (stereo not drawn) [BP, Bupropion], the “normalized (transformed) viability z-score, number of viable cells” value is listed as “top hit compound”.

The data set is the same for the next values; noted with them: HTS viability of hPSC-SCs in the presence of 30 mM glucose; Prestwick library; Table S4.
With `Nc1ccn([C@H]2CC[C@@H](CO)O2)c(=O)n1` [Zalcitabine], the z.score.t is on record as −0.9487. On the same count and under the same terms, with `CCCOc1ccccc1-c1nc2nn[nH]c2c(=O)[nH]1` [Zaprinast] the figure was −0.4341; with `COc1cc(-c2ccc(=O)[nH]n2)ccc1OC(F)F` [Zardaverine], −1.128; with `Cc1cn([C@H]2C[C@H](N=[N+]=[N-])[C@@H](CO)O2)c(=O)[nH]c1=O` [Zidovudine, AZT], −0.8478.

With `CN(C)C/C=C(/c1ccc(Br)cc1)c1cccnc1` [Zimelidine dihydrochloride monohydrate], the z.score.t came to 0.4064. In the case of `Cc1cc(CC(=O)O)n(C)c1C(=O)c1ccc(Cl)cc1` [Zomepirac sodium salt], the z.score.t is listed as −0.9042. On the same count and under the same terms, then `OCCN1CCN(CC/C=C2/c3ccccc3Sc3ccc(Cl)cc32)CC1` [Zuclopenthixol hydrochloride], with −1.345; and `CCCCNC(=O)NS(=O)(=O)c1ccc(C)cc1` [tolbutamide, Tolbutamide, reference compound], with 2.089.

As to (S)-(−)-Atenolol, the z.score.t amounted to 1.606. Turning to (S)-propranolol hydrochloride, the z.score.t worked out at 0.6803.

Alverine citrate salt: the z.score.t is −1.025. Consider Beta-Escin, for which the z.score.t is −0.5583. Same read-out and setting: with Carbinoxamine maleate salt the figure was 0.07936.

For the compound Clofilium tosylate, the z.score.t is given as −0.6227.

Take Dihydroergotoxine mesylate: the z.score.t was 0.9377. Take Eburnamonine (−): the z.score.t came to 1.516.

As for Ifenprodil tartrate, the z.score.t is −1.132.

For Iobenguane sulfate, the z.score.t stood at 0.3845. As for Ketanserin tartrate hydrate, the z.score.t was −1.137. Take Pizotifen malate: the z.score.t is reported as −0.2329. S(−)Eticlopride hydrochloride: the z.score.t was −0.5169. As to Spiramycin, the z.score.t was 0.7158.

For Terbutaline hemisulfate, the z.score.t was −1.238.

As for Thioproperazine dimesylate, the z.score.t was −1.223. As for Timolol maleate salt, the z.score.t is reported as −0.6395.

Turning to Trimeprazine tartrate, the z.score.t was −0.411.

On to Trimipramine maleate salt, for which the z.score.t turned out to be 0.2361.

Regarding Tropicamide, the z.score.t is −0.1241. On the same count and under the same terms, with Verteporfin the figure was −1.551; with Vitamin K2, −0.4141.

The same data set, now with this note: human.
Consider `CC(NC(C)(C)C)C(=O)c1cccc(Cl)c1` (stereo not drawn) [BP, Bupropion], for which the highest non-toxic dose came out at 0.7 µM.

The data set is the same for the next values; noted with them: various concentrations, high glucose.
As to `CC(NC(C)(C)C)C(=O)c1cccc(Cl)c1` (stereo not drawn) [BP, Bupropion], the “rescue of viability of high glucose treated SC cultures, dose response” value is given as “dose-dependent effect on rescuing the viability”.

The test system of the next data set is patients suffering from neuropathic pain.
Assay: not given
Conditions: cited from earlier work.
On to `CC(NC(C)(C)C)C(=O)c1cccc(Cl)c1` (stereo not drawn) [BP, Bupropion], for which the “benefit in patients with neuropathic pain” value was “some benefit”.

System in another data set: not listed separately
The data set is described as follows: Blood glucose levels in STZ-treated mice. The note with it: BP in chow.
Consider `CC(NC(C)(C)C)C(=O)c1cccc(Cl)c1` (stereo not drawn) [BP, Bupropion], for which the blood glucose levels entry is listed as “does not affect glucose levels”.
